# Measurements: patent publication US20250059217A1, “HETEROCYCLIC COMPOUNDS AND METHODS OF PREPARATION THEREOF” (priority 2021, published 2025)
# Target: T1, 5-HT2A receptor (Homo sapiens, UniProt P28223)
# T1 construct: expressed in transfected cells; host or cells: HEK293T
# Test: Serotonin receptor 5-HT2 functional assay (Gq dissociation BRET or Gq-dependent calcium flux), 5-HT2A
# Format: cell-based
# Details: not given
# T1 sequence (P28223 whole entry): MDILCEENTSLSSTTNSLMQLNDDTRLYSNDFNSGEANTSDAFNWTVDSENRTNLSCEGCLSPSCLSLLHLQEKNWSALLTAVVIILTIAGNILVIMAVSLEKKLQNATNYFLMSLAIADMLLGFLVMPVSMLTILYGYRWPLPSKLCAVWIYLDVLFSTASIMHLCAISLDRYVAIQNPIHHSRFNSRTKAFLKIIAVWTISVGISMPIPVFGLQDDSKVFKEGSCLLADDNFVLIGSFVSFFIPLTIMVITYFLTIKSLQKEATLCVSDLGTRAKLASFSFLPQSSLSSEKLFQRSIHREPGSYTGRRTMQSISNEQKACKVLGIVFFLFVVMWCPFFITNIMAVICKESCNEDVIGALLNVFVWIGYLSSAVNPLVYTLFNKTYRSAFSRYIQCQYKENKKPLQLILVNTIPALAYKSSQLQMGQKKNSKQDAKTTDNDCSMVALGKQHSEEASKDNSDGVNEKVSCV
row,Structure (SMILES),EC50 [nM]
1,"Cc1cccc2c(CCN(C)C)c[nH]c12 [7,N,N-TMT]",232
2,"Cc1ccc(O)c2c(CCN(C)C)c[nH]c12 [Compound 1, 3-[2-(Dimethylamino)ethyl]-7-methylindol-4-ol]",66
3,"CCc1ccc(O)c2c(CCN(C)C)c[nH]c12 [Compound 9, 3-[2-(Dimethylamino)ethyl]-7-ethylindol-4-ol]",154
4,"CC(C)c1ccc(O)c2c(CCN(C)C)c[nH]c12 [Compound 10, 3-[2-(Dimethylamino)ethyl]-7-isopropylindol-4-ol]",1070
5,"CC(C)c1ccc(O)c2c(CCN(C)C)cn(C)c12 [Compound 11, 3-[2-(Dimethylamino)ethyl]-7-isopropyl-1-methylindol-4-ol]",1160
6,CCN(C)CCc1c[nH]c2c(C)ccc(O)c12 [Compound 14],82
7,"Cc1ccc(O)c2c(CCN(C)C(C)C)c[nH]c12 [Compound 16, 3-[2-[Isopropyl(methyl)amino]ethyl]-7-methylindol-4-ol]",150
8,Cc1ccc(O)c2c(CCN(C)C3CC3)c[nH]c12 [Compound 17],12.9
9,Cc1ccc(OP(=O)(O)O)c2c(CCN(C)C)c[nH]c12 [Compound 24],1150
10,"COc1ccc(C)c2[nH]cc(CCN(C)C)c12 [Compound 26, [2-(4-Methoxy-7-methylindol-3-yl)ethyl]dimethylamine]",95
11,"Cc1c(F)cc(O)c2c(CCN(C)C)c[nH]c12 [Compound 33, 3-[2-(Dimethylamino)ethyl]-6-fluoro-7-methylindol-4-ol]",20
12,"COc1cc(F)c(C)c2[nH]cc(CCN(C)C)c12 [Compound 34, [2-(6-Fluoro-4-methoxy-7-methylindol-3-yl)ethyl]dimethylamine]",16.9

# Same assay, conditions: Table 4; efficacy relative to 4-hydroxytryptamine; at least three replicate trials
row,Structure (SMILES),5-HT2A BRET Eff % [%]
1,"Cc1cccc2c(CCN(C)C)c[nH]c12 [7,N,N-TMT]",80
2,"Cc1ccc(O)c2c(CCN(C)C)c[nH]c12 [Compound 1, 3-[2-(Dimethylamino)ethyl]-7-methylindol-4-ol]",72
3,"CCc1ccc(O)c2c(CCN(C)C)c[nH]c12 [Compound 9, 3-[2-(Dimethylamino)ethyl]-7-ethylindol-4-ol]",78
4,"CC(C)c1ccc(O)c2c(CCN(C)C)c[nH]c12 [Compound 10, 3-[2-(Dimethylamino)ethyl]-7-isopropylindol-4-ol]",40
5,"CC(C)c1ccc(O)c2c(CCN(C)C)cn(C)c12 [Compound 11, 3-[2-(Dimethylamino)ethyl]-7-isopropyl-1-methylindol-4-ol]",66
6,CCN(C)CCc1c[nH]c2c(C)ccc(O)c12 [Compound 14],63
7,"Cc1ccc(O)c2c(CCN(C)C(C)C)c[nH]c12 [Compound 16, 3-[2-[Isopropyl(methyl)amino]ethyl]-7-methylindol-4-ol]",77
8,Cc1ccc(O)c2c(CCN(C)C3CC3)c[nH]c12 [Compound 17],54
9,Cc1ccc(OP(=O)(O)O)c2c(CCN(C)C)c[nH]c12 [Compound 24],69
10,"COc1ccc(C)c2[nH]cc(CCN(C)C)c12 [Compound 26, [2-(4-Methoxy-7-methylindol-3-yl)ethyl]dimethylamine]",68
11,"Cc1c(F)cc(O)c2c(CCN(C)C)c[nH]c12 [Compound 33, 3-[2-(Dimethylamino)ethyl]-6-fluoro-7-methylindol-4-ol]",78
12,"COc1cc(F)c(C)c2[nH]cc(CCN(C)C)c12 [Compound 34, [2-(6-Fluoro-4-methoxy-7-methylindol-3-yl)ethyl]dimethylamine]",84

# Target: T2, 5-HT2C receptor (Homo sapiens, UniProt P28335)
# T2 construct: expressed in transfected cells; host or cells: HEK293T
# T2 sequence (P28335 33-458): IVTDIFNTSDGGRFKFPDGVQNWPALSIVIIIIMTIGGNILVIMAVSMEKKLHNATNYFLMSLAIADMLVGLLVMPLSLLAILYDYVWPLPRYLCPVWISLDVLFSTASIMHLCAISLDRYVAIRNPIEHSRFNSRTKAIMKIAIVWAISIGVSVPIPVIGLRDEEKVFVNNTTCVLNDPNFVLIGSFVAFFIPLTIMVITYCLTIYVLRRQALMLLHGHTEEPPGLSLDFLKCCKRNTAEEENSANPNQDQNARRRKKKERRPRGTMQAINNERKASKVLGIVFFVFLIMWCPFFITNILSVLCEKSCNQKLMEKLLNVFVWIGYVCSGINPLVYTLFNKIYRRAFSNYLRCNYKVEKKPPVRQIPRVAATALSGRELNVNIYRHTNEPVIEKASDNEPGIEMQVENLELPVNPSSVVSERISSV
# Test: cell-based
# Details: not given
Structure (SMILES),5-HT2C BRET Eff % [%],EC50 [nM]
"Cc1ccc(O)c2c(CCN(C)C)c[nH]c12 [Compound 1, 3-[2-(Dimethylamino)ethyl]-7-methylindol-4-ol]",79,6.9
"CCc1ccc(O)c2c(CCN(C)C)c[nH]c12 [Compound 9, 3-[2-(Dimethylamino)ethyl]-7-ethylindol-4-ol]",67,28
"CC(C)c1ccc(O)c2c(CCN(C)C)c[nH]c12 [Compound 10, 3-[2-(Dimethylamino)ethyl]-7-isopropylindol-4-ol]",60,34
"CC(C)c1ccc(O)c2c(CCN(C)C)cn(C)c12 [Compound 11, 3-[2-(Dimethylamino)ethyl]-7-isopropyl-1-methylindol-4-ol]",88,22
CCN(C)CCc1c[nH]c2c(C)ccc(O)c12 [Compound 14],108,4.2
"Cc1ccc(O)c2c(CCN(C)C(C)C)c[nH]c12 [Compound 16, 3-[2-[Isopropyl(methyl)amino]ethyl]-7-methylindol-4-ol]",103,53
Cc1ccc(O)c2c(CCN(C)C3CC3)c[nH]c12 [Compound 17],111,3.2
Cc1ccc(OP(=O)(O)O)c2c(CCN(C)C)c[nH]c12 [Compound 24],69,370
"COc1ccc(C)c2[nH]cc(CCN(C)C)c12 [Compound 26, [2-(4-Methoxy-7-methylindol-3-yl)ethyl]dimethylamine]",113,3.5
"Cc1c(F)cc(O)c2c(CCN(C)C)c[nH]c12 [Compound 33, 3-[2-(Dimethylamino)ethyl]-6-fluoro-7-methylindol-4-ol]",102,1.4
"COc1cc(F)c(C)c2[nH]cc(CCN(C)C)c12 [Compound 34, [2-(6-Fluoro-4-methoxy-7-methylindol-3-yl)ethyl]dimethylamine]",94,1.8

# Same assay, conditions: Table 4; efficacy relative to 4-hydroxytryptamine; at least three replicate trials
row,Structure (SMILES),5-HT2C BRET Eff % [%]
1,"Cc1cccc2c(CCN(C)C)c[nH]c12 [7,N,N-TMT]",79

# Same assay, conditions: Table 4; relative to 4-hydroxytryptamine; at least three replicate trials; read-out: 5-HT2C BRET EC50
row,Structure (SMILES),EC50 [nM]
1,"Cc1cccc2c(CCN(C)C)c[nH]c12 [7,N,N-TMT]",11.7

# Target: T3, 5-HT2B receptor (Homo sapiens, UniProt P41595)
# T3 construct: expressed in transfected cells; host or cells: HEK293T
# Test: Serotonin receptor 5-HT2 functional assay (Gq dissociation BRET or Gq-dependent calcium flux), 5-HT2B
# Format: cell-based
# Details: 5-HT2B BRET EC50 (nM), Table 4; relative to 4-hydroxytryptamine; at least three replicate trials
# T3 sequence (P41595 whole entry): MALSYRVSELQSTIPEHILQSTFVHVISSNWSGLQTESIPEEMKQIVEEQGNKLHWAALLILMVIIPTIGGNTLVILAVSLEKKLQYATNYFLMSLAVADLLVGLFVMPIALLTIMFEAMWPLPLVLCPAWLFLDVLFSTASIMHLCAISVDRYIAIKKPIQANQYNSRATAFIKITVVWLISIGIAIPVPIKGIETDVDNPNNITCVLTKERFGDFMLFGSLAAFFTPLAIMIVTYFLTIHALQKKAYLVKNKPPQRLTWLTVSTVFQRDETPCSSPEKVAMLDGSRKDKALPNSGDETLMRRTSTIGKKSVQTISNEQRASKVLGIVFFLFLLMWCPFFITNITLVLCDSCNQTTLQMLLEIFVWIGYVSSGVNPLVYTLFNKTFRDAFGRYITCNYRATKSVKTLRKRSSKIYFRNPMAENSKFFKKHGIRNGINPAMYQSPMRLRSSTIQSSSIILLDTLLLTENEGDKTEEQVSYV
row,Structure (SMILES),EC50 [nM]
1,"Cc1cccc2c(CCN(C)C)c[nH]c12 [7,N,N-TMT]",74

# Same assay, conditions: Table 4; efficacy relative to 4-hydroxytryptamine; at least three replicate trials
row,Structure (SMILES),5-HT2B BRET Eff %
1,"Cc1cccc2c(CCN(C)C)c[nH]c12 [7,N,N-TMT]",36%
2,"Cc1ccc(O)c2c(CCN(C)C)c[nH]c12 [Compound 1, 3-[2-(Dimethylamino)ethyl]-7-methylindol-4-ol]",inactive
3,"CCc1ccc(O)c2c(CCN(C)C)c[nH]c12 [Compound 9, 3-[2-(Dimethylamino)ethyl]-7-ethylindol-4-ol]",inactive
4,"CC(C)c1ccc(O)c2c(CCN(C)C)c[nH]c12 [Compound 10, 3-[2-(Dimethylamino)ethyl]-7-isopropylindol-4-ol]",inactive
5,"CC(C)c1ccc(O)c2c(CCN(C)C)cn(C)c12 [Compound 11, 3-[2-(Dimethylamino)ethyl]-7-isopropyl-1-methylindol-4-ol]",inactive
6,CCN(C)CCc1c[nH]c2c(C)ccc(O)c12 [Compound 14],inactive
7,"Cc1ccc(O)c2c(CCN(C)C(C)C)c[nH]c12 [Compound 16, 3-[2-[Isopropyl(methyl)amino]ethyl]-7-methylindol-4-ol]",inactive
8,Cc1ccc(O)c2c(CCN(C)C3CC3)c[nH]c12 [Compound 17],inactive
9,Cc1ccc(OP(=O)(O)O)c2c(CCN(C)C)c[nH]c12 [Compound 24],inactive
10,"COc1ccc(C)c2[nH]cc(CCN(C)C)c12 [Compound 26, [2-(4-Methoxy-7-methylindol-3-yl)ethyl]dimethylamine]",inactive
11,"Cc1c(F)cc(O)c2c(CCN(C)C)c[nH]c12 [Compound 33, 3-[2-(Dimethylamino)ethyl]-6-fluoro-7-methylindol-4-ol]",inactive
12,"COc1cc(F)c(C)c2[nH]cc(CCN(C)C)c12 [Compound 34, [2-(6-Fluoro-4-methoxy-7-methylindol-3-yl)ethyl]dimethylamine]",inactive

# Same assay, conditions: Table 4; relative to 4-hydroxytryptamine; at least three replicate trials
row,Structure (SMILES),5-HT2B BRET EC50 (nM)
1,"Cc1ccc(O)c2c(CCN(C)C)c[nH]c12 [Compound 1, 3-[2-(Dimethylamino)ethyl]-7-methylindol-4-ol]",inactive
2,"CCc1ccc(O)c2c(CCN(C)C)c[nH]c12 [Compound 9, 3-[2-(Dimethylamino)ethyl]-7-ethylindol-4-ol]",inactive
3,"CC(C)c1ccc(O)c2c(CCN(C)C)c[nH]c12 [Compound 10, 3-[2-(Dimethylamino)ethyl]-7-isopropylindol-4-ol]",inactive
4,"CC(C)c1ccc(O)c2c(CCN(C)C)cn(C)c12 [Compound 11, 3-[2-(Dimethylamino)ethyl]-7-isopropyl-1-methylindol-4-ol]",inactive
5,CCN(C)CCc1c[nH]c2c(C)ccc(O)c12 [Compound 14],inactive
6,"Cc1ccc(O)c2c(CCN(C)C(C)C)c[nH]c12 [Compound 16, 3-[2-[Isopropyl(methyl)amino]ethyl]-7-methylindol-4-ol]",inactive
7,Cc1ccc(O)c2c(CCN(C)C3CC3)c[nH]c12 [Compound 17],inactive
8,Cc1ccc(OP(=O)(O)O)c2c(CCN(C)C)c[nH]c12 [Compound 24],inactive
9,"COc1ccc(C)c2[nH]cc(CCN(C)C)c12 [Compound 26, [2-(4-Methoxy-7-methylindol-3-yl)ethyl]dimethylamine]",inactive
10,"Cc1c(F)cc(O)c2c(CCN(C)C)c[nH]c12 [Compound 33, 3-[2-(Dimethylamino)ethyl]-6-fluoro-7-methylindol-4-ol]",inactive
11,"COc1cc(F)c(C)c2[nH]cc(CCN(C)C)c12 [Compound 34, [2-(6-Fluoro-4-methoxy-7-methylindol-3-yl)ethyl]dimethylamine]",inactive
